According to publication PMC10331583, “Control of fibrosis with enhanced safety via asymmetric inhibition of prolyl‐tRNA synthetase 1” (EMBO Molecular Medicine, 2023):
Positions count from the first letter of the chain named. Where “and” joins values, the source holds several entries; their conditions need not be identical. Identical values can stand only once. Like-named read-outs stand apart in the source and are kept apart here.

Assays:
PARS1 WT = target: T1, PARS1 WT (Homo sapiens, UniProt P07814); assay: Microscale thermophoresis (MST), PARS1 WT; assay type: binding; conditions: for Fraction bound: single replicates
T1 construct: His‐PARS1 (1001–1,512 aa); made in house; host or cells: Escherichia coli
T1 sequence (P07814 1001-1512 limits assumed): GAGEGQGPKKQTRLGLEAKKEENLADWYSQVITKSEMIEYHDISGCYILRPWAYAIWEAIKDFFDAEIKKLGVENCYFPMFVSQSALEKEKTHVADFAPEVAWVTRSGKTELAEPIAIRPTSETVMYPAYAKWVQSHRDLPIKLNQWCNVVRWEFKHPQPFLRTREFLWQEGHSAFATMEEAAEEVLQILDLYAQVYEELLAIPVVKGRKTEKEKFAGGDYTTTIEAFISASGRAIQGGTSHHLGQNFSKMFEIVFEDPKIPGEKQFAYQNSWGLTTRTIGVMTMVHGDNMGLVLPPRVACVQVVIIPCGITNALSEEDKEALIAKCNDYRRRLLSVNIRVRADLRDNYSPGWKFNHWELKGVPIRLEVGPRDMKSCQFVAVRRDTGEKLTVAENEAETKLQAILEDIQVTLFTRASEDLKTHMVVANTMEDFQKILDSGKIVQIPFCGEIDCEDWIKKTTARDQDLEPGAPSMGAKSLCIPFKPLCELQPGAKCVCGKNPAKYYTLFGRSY

PARS1 = target: T2, PARS1 (Homo sapiens, UniProt P07814); assay: In vitro prolylation assay; assay type: biochemical
T2 construct: His‐PARS1 (1001–1,512 aa); His; made in house; host or cells: Escherichia coli
T2 sequence (P07814 1001-1512 limits assumed): T1 sequence (P07814 1001-1512 limits assumed)
Procedure: The enzyme reaction was initiated by the addition of 100 nM purified His‐PARS1 (1001–1,512 aa). After 5 min, the reaction mixture was quenched on Whatman filter paper presoaked with 5% trichloroacetic acid (TCA). The filter papers were washed three times in 5% TCA for 10 min at 4°C and once in 100% ethanol for 10 min. The filter papers were dried, and radioactivity was quantified using liquid scintillation counter (LSC).
After 1 h, the reaction mixture was quenched on Whatman filter paper presoaked with 5% TCA. The filter papers were washed three times in 5% TCA for 10 min at 4°C and once in 100% ethanol for 10 min. The filter papers were dried, and radioactivity was quantified using LSC.

His‐PARS1 = target: T3, His‐PARS1 (Homo sapiens, UniProt P07814); assay: Surface plasmon resonance (SPR); assay type: binding; conditions: read-out: KD
T3 construct: His‐PARS1 (1001–1,512 aa); made in house; host or cells: Escherichia coli
T3 sequence (P07814 1001-1512 limits assumed): T1 sequence (P07814 1001-1512 limits assumed)

[1] = target: T4, PARS1 F1097A/E1123A/R1152L (FA/EA/RL) mutant (Homo sapiens, UniProt P07814, E1123A/F1097A/R1152L); assay: Microscale thermophoresis (MST), PARS1 mutant; assay type: binding; conditions: for Fraction bound: single replicates
T4 construct: His‐PARS1 (1001–1,512 aa); made in house; host or cells: Escherichia coli
T4 sequence (P07814 1001-1512 F1097A/E1123A/R1152L): T1 sequence (P07814 1001-1512 limits assumed) with F97A, E123A, R152L

Structure (SMILES): O=C(CC1NCCCC1O)Cn1cnc2cc(Br)c(Cl)cc2c1=O (stereo not drawn) [HF, Halofuginone, reference compound]
- Fraction bound, average (PARS1 WT; Dose 3.0518 nM): -0.0712
- Fraction bound (PARS1 WT; Dose 3.0518 nM): -0.0993 and -0.0066 and -0.1077
- Fraction bound, average (PARS1 WT; Dose 6.1035 nM): -0.0015
- Fraction bound (PARS1 WT; Dose 6.1035 nM): 0.0287 and -0.0242 and -0.0091
- Fraction bound, average (PARS1 WT; Dose 12.207 nM): 0.0765
- Fraction bound (PARS1 WT; Dose 12.207 nM): 0.1266 and 0.0543 and 0.0485
- Fraction bound, average (PARS1 WT; Dose 24.4141 nM): 0.1050
- Fraction bound (PARS1 WT; Dose 24.4141 nM): 0.1952 and 0.1143 and 0.0054
- Fraction bound, average (PARS1 WT; Dose 48.8281 nM): 0.1434
- Fraction bound (PARS1 WT; Dose 48.8281 nM): 0.1825 and 0.1031 and 0.1448
- Fraction bound, average (PARS1 WT; Dose 97.6563 nM): 0.2466
- Fraction bound (PARS1 WT; Dose 97.6563 nM): 0.2751 and 0.2161 and 0.2485
- Fraction bound, average (PARS1 WT; Dose 195.312 nM): 0.5229
- Fraction bound (PARS1 WT; Dose 195.312 nM): 0.5425 and 0.5488 and 0.4774
- Fraction bound, average (PARS1 WT; Dose 390.625 nM): 0.7387
- Fraction bound (PARS1 WT; Dose 390.625 nM): 0.7958 and 0.7241 and 0.6962
- Fraction bound, average (PARS1 WT; Dose 781.25 nM): 0.9030
- Fraction bound (PARS1 WT; Dose 781.25 nM): 0.8890 and 0.8991 and 0.9209
- Fraction bound, average (PARS1 WT; Dose 1562.5 nM): 0.9612
- Fraction bound (PARS1 WT; Dose 1562.5 nM): 0.9380 and 1.0072 and 0.9382
- Fraction bound, average (PARS1 WT; Dose 3125 nM): 0.9287
- Fraction bound (PARS1 WT; Dose 3125 nM): 0.9278 and 0.9164 and 0.9420
- Fraction bound, average (PARS1 WT; Dose 6250 nM): 0.9609
- Fraction bound (PARS1 WT; Dose 6250 nM): 0.9251 and 0.9572 and 1.0004
- Fraction bound, average (PARS1 WT; Dose 12500 nM): 0.9979
- Fraction bound (PARS1 WT; Dose 12500 nM): 0.9525 and 1.0119 and 1.0291
- Fraction bound, average (PARS1 WT; Dose 25000 nM): 1.0497
- Fraction bound (PARS1 WT; Dose 25000 nM): 1.0026 and 1.0240 and 1.1224
- Fraction bound, average (PARS1 WT; Dose 50000 nM): 0.9548
- Fraction bound (PARS1 WT; Dose 50000 nM): 0.8756 and 0.9971 and 0.9917
- Fraction bound, average (PARS1 WT; Dose 100000 nM): 1.0743
- Fraction bound (PARS1 WT; Dose 100000 nM): 1.0331 and 1.0480 and 1.1418
- IC50 (PARS1; IC50, 1 μM Pro, 5 mM ATP): 24.5 nM
- IC50 (PARS1; IC50, 10 μM Pro, 5 mM ATP): 46.2 nM
- IC50 (PARS1; IC50, 100 μM Pro, 2.5 mM ATP): 137 nM
- IC50 (PARS1; IC50, 100 μM Pro, 5 mM ATP): 103 nM
- IC50 (PARS1; IC50, 100 μM Pro, 10 mM ATP): 101 nM
- mode of PARS1 inhibition (PARS1; IC50 at different proline and ATP concentrations): proline‐competitive and ATP‐uncompetitive
- Kd (His‐PARS1; + ATP (1 mM)): 0.178 µM
- Kd (His‐PARS1; - ATP): 47.9 µM
- Fraction bound, average ([1]; Dose 3.0518 nM): -0.2588
- Fraction bound ([1]; Dose 3.0518 nM): -0.0691 and -0.4485
- Fraction bound, average ([1]; Dose 6.1035 nM): 0.0816
- Fraction bound ([1]; Dose 6.1035 nM): -0.1353 and 0.0688 and 0.3113
- Fraction bound, average ([1]; Dose 12.207 nM): -0.0324
- Fraction bound ([1]; Dose 12.207 nM): -0.1134 and -0.0549 and 0.0712
- Fraction bound, average ([1]; Dose 24.4141 nM): 0.1754
- Fraction bound ([1]; Dose 24.4141 nM): 0.2387 and 0.0706 and 0.2171
- Fraction bound, average ([1]; Dose 48.8281 nM): 0.0946
- Fraction bound ([1]; Dose 48.8281 nM): 0.0297 and 0.0849 and 0.1693
- Fraction bound, average ([1]; Dose 97.6563 nM): -0.0450
- Fraction bound ([1]; Dose 97.6563 nM): -0.0271 and 0.1069 and -0.2149
- Fraction bound, average ([1]; Dose 195.312 nM): 0.0503
- Fraction bound ([1]; Dose 195.312 nM): 0.0657 and 0.2487 and -0.1634
- Fraction bound, average ([1]; Dose 390.625 nM): -0.0697
- Fraction bound ([1]; Dose 390.625 nM): 0.2249 and -0.2797 and -0.1544
- Fraction bound, average ([1]; Dose 781.25 nM): 0.0626
- Fraction bound ([1]; Dose 781.25 nM): 0.0905 and 0.1699 and -0.0724
- Fraction bound, average ([1]; Dose 1562.5 nM): 0.4132
- Fraction bound ([1]; Dose 1562.5 nM): 0.3970 and 0.3491 and 0.4935
- Fraction bound, average ([1]; Dose 3125 nM): 0.2921
- Fraction bound ([1]; Dose 3125 nM): 0.2701 and 0.2589 and 0.3472
- Fraction bound, average ([1]; Dose 6250 nM): 0.4932
- Fraction bound ([1]; Dose 6250 nM): 0.1312 and 0.6482 and 0.7002
- Fraction bound, average ([1]; Dose 12500 nM): 0.6254
- Fraction bound ([1]; Dose 12500 nM): 0.5193 and 0.6344 and 0.7226
- Fraction bound, average ([1]; Dose 25000 nM): 0.6785
- Fraction bound ([1]; Dose 25000 nM): 0.6923 and 0.6116 and 0.7317
- Fraction bound, average ([1]; Dose 50000 nM): 0.8304
- Fraction bound ([1]; Dose 50000 nM): 1.1885 and 0.7220 and 0.5806
- Fraction bound, average ([1]; Dose 100000 nM): 1.0687
- Fraction bound ([1]; Dose 100000 nM): 0.9757 and 1.0430 and 1.1875
